Laboratory results taken from patent publication US9833497B2, “Human originated EGF domain proteins and use of the same” (CHENGDU SOURCEBIO LIMITED-LIABILITY COMPANY, priority 2013, dated 2017).

Columns and labels:
Assay type in all cases: cell-based
Moraxella catarrhalis = experiment: MIC against Gram-negative bacteria: Moraxella catarrhalis
Procedure, shortened: (§1)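 MIC = lowest concentration of recombinant protein showing no growth. Test proteins: purified human-derived EGF domain proteins, two-fold dilution series, three wells per concentration; inoculum 5×10^5 CFU/mL in LB; incubation 37° C with shaking at 175 rpm.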

E. coli DH5α = experiment: Antibacterial activity: MIC and growth curve against E. coli DH5α in 96-well plate; conditions: minimal inhibitory concentration against E. coli DH5α; 96-well plate, 5×10^5 CFU/mL, 37° C., judged after 8 h
Procedure, shortened: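 MIC taken as lowest protein level with no bacterial growth, tracked by A600 every 30 min during 37 °C, 175 rpm culture. Two-fold protein series 50-12.5 μg/mL final, triplicate wells, against 5×10^5 CFU/mL of LB-washed mid-log cells.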

Serratia marcescens = experiment: MIC against Gram-negative bacteria: Serratia marcescens
Procedure, shortened: as §1

Proteus vulgaris = experiment: MIC against Gram-negative bacteria: Proteus vulgaris
Procedure, shortened: as §1

Proteus mirabilis = experiment: MIC against Gram-negative bacteria: Proteus mirabilis
Procedure, shortened: as §1

Aeromonas hydrophila = experiment: MIC against Gram-negative bacteria: Aeromonas hydrophila
Procedure, shortened: as §1

E. coli BL21 = experiment: MIC against Gram-negative bacteria: E. coli BL21
Procedure, shortened: as §1

Citrobacter diversus = experiment: MIC against Gram-negative bacteria: Citrobacter diversus
Procedure, shortened: as §1

Enterobacter cloacae = experiment: MIC against Gram-negative bacteria: Enterobacter cloacae
Procedure, shortened: as §1

Klebsiella pneumonia = experiment: MIC against Gram-negative bacteria: Klebsiella pneumonia
Procedure, shortened: as §1

Pseudomonas aeruginosa = experiment: MIC against Gram-negative bacteria: Pseudomonas aeruginosa
Procedure, shortened: as §1

[1] = Moraxella catarrhalis, 5×10^5 CFU/mL, 10 h cultivation at 37° C.
[2] = Serratia marcescens, 5×10^5 CFU/mL, 10 h cultivation at 37° C.
[3] = Proteus vulgaris, 5×10^5 CFU/mL, 10 h cultivation at 37° C.
[4] = Proteus mirabilis, 5×10^5 CFU/mL, 10 h cultivation at 37° C.
[5] = Aeromonas hydrophila, 5×10^5 CFU/mL, 10 h cultivation at 37° C.
[6] = E. coli BL21, 5×10^5 CFU/mL, 10 h cultivation at 37° C.
[7] = Citrobacter diversus, 5×10^5 CFU/mL, 10 h cultivation at 37° C.
[8] = Enterobacter cloacae, 5×10^5 CFU/mL, 10 h cultivation at 37° C.
[9] = Klebsiella pneumonia, 5×10^5 CFU/mL, 10 h cultivation at 37° C.
[10] = Pseudomonas aeruginosa, 5×10^5 CFU/mL, 10 h cultivation at 37° C.
[11] = 96-well plate, 5×10^5 CFU/mL, 37° C., 10 h
[12] = Moraxella catarrhalis, 96-well plate, 5×10^5 CFU/mL, 37° C., 10 h
[13] = Serratia marcescens, 96-well plate, 5×10^5 CFU/mL, 37° C., 10 h
[14] = Proteus vulgaris, 96-well plate, 5×10^5 CFU/mL, 37° C., 10 h
[15] = Proteus mirabilis, 96-well plate, 5×10^5 CFU/mL, 37° C., 10 h
[16] = Aeromonas hydrophila, 96-well plate, 5×10^5 CFU/mL, 37° C., 10 h
[17] = E. coli BL21, 96-well plate, 5×10^5 CFU/mL, 37° C., 10 h
[18] = Citrobacter diversus, 96-well plate, 5×10^5 CFU/mL, 37° C., 10 h
[19] = Enterobacter cloacae, 96-well plate, 5×10^5 CFU/mL, 37° C., 10 h
[20] = Klebsiella pneumonia, 96-well plate, 5×10^5 CFU/mL, 37° C., 10 h
[21] = Pseudomonas aeruginosa, 96-well plate, 5×10^5 CFU/mL, 37° C., 10 h
[22] = M. catarrhalis, 10 h cultivation at 37° C., 5×10^5 CFU/mL
[23] = S. marcescens, 10 h cultivation at 37° C., 5×10^5 CFU/mL
[24] = P. vulgaris, 10 h cultivation at 37° C., 5×10^5 CFU/mL
[25] = P. mirabilis, 10 h cultivation at 37° C., 5×10^5 CFU/mL
[26] = A. hydrophila, 10 h cultivation at 37° C., 5×10^5 CFU/mL
[27] = E. coli BL21, 10 h cultivation at 37° C., 5×10^5 CFU/mL
[28] = C. diversus, 10 h cultivation at 37° C., 5×10^5 CFU/mL
[29] = E. cloacae, 10 h cultivation at 37° C., 5×10^5 CFU/mL
[30] = K. pneumonia, 10 h cultivation at 37° C., 5×10^5 CFU/mL
[31] = P. aeruginosa, 10 h cultivation at 37° C., 5×10^5 CFU/mL

PRT950 (CESGCASSPCQHGGSCHPQRQPPYYSCQCAPPFSGSRCE; listed as Homo sapiens)
12.5 µg/mL: MIC (Moraxella catarrhalis; M. catarrhalis, 10 h cultivation at 37° C.) | MIC (Serratia marcescens; S. marcescens, 10 h cultivation at 37° C.) | MIC (E. coli BL21; E. coli BL21, 10 h cultivation at 37° C.) | MIC (Enterobacter cloacae; E. cloacae, 10 h cultivation at 37° C.)
25 µg/mL: MIC (Proteus vulgaris; P. vulgaris, 10 h cultivation at 37° C.) | MIC (Citrobacter diversus; C. diversus, 10 h cultivation at 37° C.) | MIC (Klebsiella pneumonia; K. pneumonia, 10 h cultivation at 37° C.)
50 µg/mL: MIC (E. coli DH5α) | MIC (Proteus mirabilis; P. mirabilis, 10 h cultivation at 37° C.) | MIC (Aeromonas hydrophila; A. hydrophila, 10 h cultivation at 37° C.) | MIC (Pseudomonas aeruginosa; P. aeruginosa, 10 h cultivation at 37° C.)

PRT1405 (PTTQCIDPQCGGRGICIMGSCACNSGYKGESCE; listed as Homo sapiens)
50 µg/mL: MIC against P. vulgaris (Proteus vulgaris; [3])
12.5 µg/mL: MIC against M. catarrhalis (Moraxella catarrhalis; [1]) | MIC (E. coli DH5α) | MIC against S. marcescens (Serratia marcescens; [2]) | MIC against P. mirabilis (Proteus mirabilis; [4]) | MIC against A. hydrophila (Aeromonas hydrophila; [5]) | MIC against E. coli BL21 (E. coli BL21; [6]) | MIC against C. diversus (Citrobacter diversus; [7]) | MIC against E. cloacae (Enterobacter cloacae; [8]) | MIC against K. pneumonia (Klebsiella pneumonia; [9]) | MIC against P. aeruginosa (Pseudomonas aeruginosa; [10])

PRT1438 (PVKSCSEPRCFNGGTCQQALYFSDFVCQCPEGFAGKCCE; listed as Homo sapiens)
25 µg/mL: MIC against P. vulgaris (Proteus vulgaris; [3]) | MIC against A. hydrophila (Aeromonas hydrophila; [5]) | MIC against E. coli BL21 (E. coli BL21; [6]) | MIC against K. pneumonia (Klebsiella pneumonia; [9])
12.5 µg/mL: MIC against M. catarrhalis (Moraxella catarrhalis; [1]) | MIC (E. coli DH5α) | MIC against S. marcescens (Serratia marcescens; [2]) | MIC against E. cloacae (Enterobacter cloacae; [8])
50 µg/mL: MIC against P. mirabilis (Proteus mirabilis; [4]) | MIC against C. diversus (Citrobacter diversus; [7]) | MIC against P. aeruginosa (Pseudomonas aeruginosa; [10])

PRT586 (CPCPEGPGSQRHFATSCHQDEYSQQIVCHCRAGYTGLRCEACAPGHFGDPSRPGGRCQL; listed as Homo sapiens)
50 µg/mL: MIC against P. mirabilis (Proteus mirabilis; [11]) | MIC against A. hydrophila (Aeromonas hydrophila; [11]) | MIC against E. coli BL21 (E. coli BL21; [11]) | MIC against K. pneumonia (Klebsiella pneumonia; [11])
12.5 µg/mL: MIC (E. coli DH5α) | MIC against S. marcescens (Serratia marcescens; [11]) | MIC against C. diversus (Citrobacter diversus; [11]) | MIC against E. cloacae (Enterobacter cloacae; [11]) | MIC against P. aeruginosa (Pseudomonas aeruginosa; [11])
25 µg/mL: MIC against M. catarrhalis (Moraxella catarrhalis; [11]) | MIC against P. vulgaris (Proteus vulgaris; [11])

PRT1243 (FGESCEQQCPHCRHGEACEPDTGHCQRCDPGWLGPRCE; listed as Homo sapiens)
12.5 µg/mL: MIC (E. coli DH5α) | MIC against S. marcescens (Serratia marcescens; [13]) | MIC against C. diversus (Citrobacter diversus; [18]) | MIC against E. cloacae (Enterobacter cloacae; [19]) | MIC against P. aeruginosa (Pseudomonas aeruginosa; [21])
25 µg/mL: MIC against M. catarrhalis (Moraxella catarrhalis; [12]) | MIC against P. vulgaris (Proteus vulgaris; [14])
50 µg/mL: MIC against P. mirabilis (Proteus mirabilis; [15]) | MIC against A. hydrophila (Aeromonas hydrophila; [16]) | MIC against E. coli BL21 (E. coli BL21; [17]) | MIC against K. pneumonia (Klebsiella pneumonia; [20])

PRT785 (IHTCNCHNGAFCSAYDGECKCTPGWTGLYCT; listed as Homo sapiens)
25 µg/mL: MIC (μg/mL) M. catarrhalis (Moraxella catarrhalis; [22]) | MIC (E. coli DH5α) | MIC (μg/mL) P. vulgaris (Proteus vulgaris; [24]) | MIC (μg/mL) K. pneumonia (Klebsiella pneumonia; [30]) | MIC (μg/mL) P. aeruginosa (Pseudomonas aeruginosa; [31])
12.5 µg/mL: MIC (μg/mL) C. diversus (Citrobacter diversus; [28]) | MIC (μg/mL) E. cloacae (Enterobacter cloacae; [29])
50 µg/mL: MIC (μg/mL) S. marcescens (Serratia marcescens; [23]) | MIC (μg/mL) P. mirabilis (Proteus mirabilis; [25]) | MIC (μg/mL) A. hydrophila (Aeromonas hydrophila; [26]) | MIC (μg/mL) E. coli BL21 (E. coli BL21; [27])

PRT1380 (SQRSCPRGCSQRGRCEGGRCVCDPGYTGDDC; listed as Homo sapiens)
12.5 µg/mL: MIC against C. diversus (Citrobacter diversus; [7]) | MIC against E. cloacae (Enterobacter cloacae; [8]) | MIC against P. aeruginosa (Pseudomonas aeruginosa; [10])
50 µg/mL: MIC against M. catarrhalis (Moraxella catarrhalis; [1]) | MIC against S. marcescens (Serratia marcescens; [2]) | MIC against P. vulgaris (Proteus vulgaris; [3]) | MIC against P. mirabilis (Proteus mirabilis; [4]) | MIC against A. hydrophila (Aeromonas hydrophila; [5]) | MIC against E. coli BL21 (E. coli BL21; [6]) | MIC against K. pneumonia (Klebsiella pneumonia; [9])
25 µg/mL: MIC (E. coli DH5α)

PRT615 (CDCHALGSTNGQCDIRTGQCECQPGITGQHCERCEVNHFGFGPEGCKP; listed as Homo sapiens)
12.5 µg/mL: MIC (E. coli DH5α) | MIC P. mirabilis (Proteus mirabilis; [11]) | MIC E. cloacae (Enterobacter cloacae; [11]) | MIC P. aeruginosa (Pseudomonas aeruginosa; [11])
50 µg/mL: MIC S. marcescens (Serratia marcescens; [11]) | MIC C. diversus (Citrobacter diversus; [11])
25 µg/mL: MIC M. catarrhalis (Moraxella catarrhalis; [11]) | MIC P. vulgaris (Proteus vulgaris; [11]) | MIC A. hydrophila (Aeromonas hydrophila; [11]) | MIC E. coli BL21 (E. coli BL21; [11]) | MIC K. pneumonia (Klebsiella pneumonia; [11])

PRT243 (DVNECGMKPRPCQHRCVNTHGSYKCFCLSGHMLMPDATCV; listed as Homo sapiens)
12.5 µg/mL: MIC (E. coli DH5α) | MIC (μg/mL) S. marcescens (Serratia marcescens; [23]) | MIC (μg/mL) P. mirabilis (Proteus mirabilis; [25]) | MIC (μg/mL) E. coli BL21 (E. coli BL21; [27]) | MIC (μg/mL) C. diversus (Citrobacter diversus; [28]) | MIC (μg/mL) E. cloacae (Enterobacter cloacae; [29]) | MIC (μg/mL) K. pneumonia (Klebsiella pneumonia; [30]) | MIC (μg/mL) P. aeruginosa (Pseudomonas aeruginosa; [31])
25 µg/mL: MIC (μg/mL) M. catarrhalis (Moraxella catarrhalis; [22]) | MIC (μg/mL) P. vulgaris (Proteus vulgaris; [24]) | MIC (μg/mL) A. hydrophila (Aeromonas hydrophila; [26])

PRT82 (CDCYPTGSLSRVCDPEDGQCPCKPGVIGRQCDRCDNPFAEVTTNGCEV; listed as Homo sapiens)
12.5 µg/mL: MIC (μg/mL) S. marcescens (Serratia marcescens; [13]) | MIC (μg/mL) P. vulgaris (Proteus vulgaris; [14]) | MIC (μg/mL) P. mirabilis (Proteus mirabilis; [15]) | MIC (μg/mL) A. hydrophila (Aeromonas hydrophila; [16]) | MIC (μg/mL) E. coli BL21 (E. coli BL21; [17])
50 µg/mL: MIC (μg/mL) C. diversus (Citrobacter diversus; [18]) | MIC (μg/mL) K. pneumonia (Klebsiella pneumonia; [20])
100 µg/mL: MIC (μg/mL) M. catarrhalis (Moraxella catarrhalis; [12])
25 µg/mL: MIC (E. coli DH5α) | MIC (μg/mL) E. cloacae (Enterobacter cloacae; [19]) | MIC (μg/mL) P. aeruginosa (Pseudomonas aeruginosa; [21])
